14 molecules from patent US11014929B2, “Pyrazolopyrimidine compounds and uses thereof” (Incyte Corporation, priority 2016, dated 2021) can be followed below.

What is called Ki is the dissociation constant of the complex between target and ligand, obtained from inhibition or displacement. A higher Ki goes with weaker binding.

In this test the target is HPK1 (Homo sapiens (Human), UniProt Q92918). Kind of test: HPK1 Kinase Binding Assay. As to conditions: LanthaScreen tracer 222 binding, active HPK1, one hour incubation at 25° C. The protocol: A stock solution of 1 mM test compound was prepared in DMSO. The compound plate was prepared by 3-fold and 11-point serial dilutions. 0.1 μL of the compound in DMSO was transferred from the compound plate to the white 384 well polystyrene plates. The assay buffer contained 50 mM HEPES, pH 7.5, 0.01% Tween-20, 5 mM MgCl2, 0.01% BSA, and 5 mM DTT. 5 μl of 4 nM active HPK1 (SignalChem M23-11G) prepared in the buffer was added to the plate. The enzyme concentration given was based on the given stock concentration reported by the vender. 5 μl of 18 nM tracer 222 (ThermoFisher PV6121) and 4 nM LanthaScreen Eu-Anti GST antibody (ThermoFisher PV5595) were added. After one hour incubation at 25° C., the plates were read on a PHERAstar FS plate reader (BMG Labtech). Ki values were determined.
Sequence of HPK1 (Q92918 1-346): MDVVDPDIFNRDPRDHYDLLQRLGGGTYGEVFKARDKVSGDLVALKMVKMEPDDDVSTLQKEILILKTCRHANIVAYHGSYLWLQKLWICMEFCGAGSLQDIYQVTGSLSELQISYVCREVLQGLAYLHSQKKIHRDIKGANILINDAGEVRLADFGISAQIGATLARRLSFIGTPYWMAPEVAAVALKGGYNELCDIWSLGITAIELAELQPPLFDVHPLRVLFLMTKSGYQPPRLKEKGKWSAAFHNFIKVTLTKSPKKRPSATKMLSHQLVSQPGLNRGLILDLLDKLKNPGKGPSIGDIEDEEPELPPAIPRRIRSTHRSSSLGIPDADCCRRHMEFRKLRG
The molecule `CN1CCN(c2ccc(-c3n[nH]c4cnc(-c5cccnc5)nc34)cc2)CC1` [Example 5, 3-(4-(4-Methylpiperazin-1-yl)phenyl)-5-(pyridin-3-yl)-1H-pyrazolo[4,3-d]pyrimidine] yielded a Ki not above 0.1 µM.

Turning to `CNCc1cc(F)c(-c2ncc3[nH]nc(-c4ccc(C(=O)NC)nc4)c3n2)c(F)c1` [Example 61, 5-(5-(2,6-Difluoro-4-((methylamino)methyl)phenyl)-1H-pyrazolo[4,3-d]pyrimidin-3-yl)-N-methylpicolinamide], the Ki was not above 0.1 µM.

As to `CNC1CCc2cc(F)c(-c3ncc4[nH]nc(-c5ccc(N6CCOCC6)nc5)c4n3)c(F)c2C1` (centres unmarked) [Example 115, 6,8-Difluoro-N-methyl-7-(3-(6-morpholinopyridin-3-yl)-1H-pyrazolo[4,3-d]pyrimidin-5-yl)-1,2,3,4-tetrahydronaphthalen-2-amine], the inhibitory constant (Ki) is not above 0.1 µM.

`Cc1cccc(F)c1-c1ncc2[nH]nc(-c3ccc(N4CCCC(O)C4)cc3)c2n1` (centres unmarked) [Example 57, 1-(4-(5-(2-Fluoro-6-methylphenyl)-1H-pyrazolo[4,3-d]pyrimidin-3-yl)phenyl)piperidin-3-ol] yielded a Ki not above 0.1 µM.

`COc1cccc(F)c1-c1ncc2[nH]nc(-c3ccc(C#N)cc3)c2n1` [Example 17, 4-(5-(2-Fluoro-6-methoxyphenyl)-1H-pyrazolo[4,3-d]pyrimidin-3-yl)benzonitrile] had a Ki not above 0.1 µM.

Turning to `COc1ccccc1-c1ncc2[nH]nc(-c3ccc(N4CCN(C)CC4)cc3)c2n1` [Example 3, 5-(2-Methoxyphenyl)-3-(4-(4-methylpiperazin-1-yl)phenyl)-1H-pyrazolo[4,3-d]pyrimidine], the Ki was not above 0.1 µM.

In turn, `CCN1CCN(c2ccc(-c3n[nH]c4cnc(-c5c(F)cc(CNC)cc5C(F)(F)F)nc34)cc2)CC1` [Example 124, 1-(4-(3-(4-(4-Ethylpiperazin-1-yl)phenyl)-1H-pyrazolo[4,3-d]pyrimidin-5-yl)-3-fluoro-5-(trifluoromethyl)phenyl)-N-methylmethanamine] gave a Ki not above 0.1 µM.

In the case of `Cc1cccc(F)c1-c1ncc2[nH]nc(-c3ccc(N4CCC(O)C4)cc3)c2n1` (centres unmarked) [Example 60, 1-(4-(5-(2-Fluoro-6-methylphenyl)-1H-pyrazolo[4,3-d]pyrimidin-3-yl)phenyl)pyrrolidin-3-ol], the Ki is not above 0.1 µM.

Regarding `COc1cccc(F)c1-c1ncc2[nH]nc(-c3ccc(CC#N)cc3)c2n1` [Example 34, 2-(4-(5-(2-Fluoro-6-methoxyphenyl)-1H-pyrazolo[4,3-d]pyrimidin-3-yl)phenyl)acetonitrile], the Ki was not above 0.1 µM.

`COc1cccc(F)c1-c1ncc2[nH]nc(-c3ccccc3)c2n1` [Example 12, 5-(2-Fluoro-6-methoxyphenyl)-3-phenyl-1H-pyrazolo[4,3-d]pyrimidine] yielded a Ki not above 0.1 µM.

In the case of `CNCc1cc(F)c(-c2ncc3[nH]nc(-c4ccc(C(=O)NC)c(F)c4)c3n2)c(F)c1` [Example 62, 4-(5-(2,6-Difluoro-4-((methylamino)methyl)phenyl)-1H-pyrazolo[4,3-d]pyrimidin-3-yl)-2-fluoro-N-methylbenzamide], the Ki was not above 0.1 µM.

For `COc1cccc(F)c1-c1ncc2[nH]nc(-c3ccc(N4CCOCC4)nc3)c2n1` [Example 53, 4-(5-(5-(2-Fluoro-6-methoxyphenyl)-1H-pyrazolo[4,3-d]pyrimidin-3-yl)pyridin-2-yl)morpholine], the Ki is not above 0.1 µM.

`COc1ccc(-c2ncc3[nH]nc(-c4ccc(N5CCN(C)CC5)cc4)c3n2)c2c1CNCC2` [Example 100, 8-Methoxy-5-(3-(4-(4-methylpiperazin-1-yl)phenyl)-1H-pyrazolo[4,3-d]pyrimidin-5-yl)-1,2,3,4-tetrahydroisoquinoline] registered a Ki not above 0.1 µM.

The molecule `CN1CCN(c2ccc(-c3n[nH]c4cnc(-c5cccc(C(N)=O)c5F)nc34)cc2)CC1` [Example 46, 2-Fluoro-3-(3-(4-(4-methylpiperazin-1-yl)phenyl)-1H-pyrazolo[4,3-d]pyrimidin-5-yl)benzamide] came in with an inhibition constant (Ki) not above 0.1 µM.
